Publication PMC5883364 (Malaria Journal, 2018)

Tests used:
[1] = system: P. falciparum IPC5202 (artemisinin-resistant, K13 R539T); assay: SYBR Green I assay, IC50, strain IPC5202; type: cell-based, Plasmodium falciparum; conditions: Plasmodium falciparum, read-out: P. falciparum IC50 ± SD, IPC5202, strain IPC5202
Protocol: Staging and parasitaemia were determined by light microscopy of Giemsa-stained thin blood smears. Anti-malarial activity was determined using the SYBR Green I assay, as previously described.

[2] = system: P. falciparum IPC4912 (artemisinin-resistant, K13 I543T); assay: SYBR Green I assay, IC50, strain IPC4912; type: cell-based, Plasmodium falciparum; conditions: Plasmodium falciparum, read-out: P. falciparum IC50 ± SD, IPC4912
Protocol: Staging and parasitaemia were determined by light microscopy of Giemsa-stained thin blood smears. Anti-malarial activity was determined using the SYBR Green I assay, as previously described. Briefly, early ring stage parasites (> 80% of rings) were challenged with a 1:3 serial dilution of each compound, in concentrations ranging from 10,000–0.169 nM. Fluorescence intensity was measured with a multi-mode microplate reader (Triad, Dynex Technologies), with excitation and emission wavelengths of 485 and 535 nm, respectively, and analysed by nonlinear regression using GraphPad Prism to determine IC50 values.

[3] = system: HepG2-A16 (human hepatoma) cells
Protocol: (§1) Cytotoxicity was assessed on the mammalian cell lines HepG2-A16 (human hepatoma) and V79 (Chinese hamster lung), using a MTT based assay, as previously described. […] V79 and HepG2 cell lines were incubated for 24 and 48 h, respectively (media changed at 24 h intervals). Absorbance was read at 570 nm on a multi-mode microplate reader (Triad, Dynex Technologies), to produce a log dose-dependence curve. The LD50 value for each compound was estimated by non-linear interpolation of the dose-dependence curve (GraphPad Software).

[4] = system: V79 (Chinese hamster lung) cells
Protocol: as §1

[5] = system: P. falciparum IPC5202 ring-stage parasites; assay: Ring-stage survival assay (RSA), IPC5202; type: cell-based, Plasmodium falciparum; conditions: Plasmodium falciparum, 6 h; read-out: Ring-stage survival rate (RSA), percentage of viable parasites, IPC5202
Protocol: Ring-stage survival assays (RSA) were carried out as described in [21], with modifications. Parasite cultures were synchronized once, with 5% sorbitol, and in the next reinvasion cycle, twice, with a 6 h interval. […] Then, plates were centrifuged and supernatant replaced by drug-free culture media. After additional incubation during 66 h for ring-stage, and 42 h for mature-stage, susceptibility was assessed microscopically on Giemsa-stained thin blood smears by estimating the percentage of viable parasites that developed into a second generation of rings or trophozoites.

[6] = system: P. falciparum 3D7 mature-stage parasites; conditions: typical value, strain not stated; cited from earlier work
[7] = system: P. falciparum Dd2 (chloroquine-resistant, mefloquine-resistant); set-up: method as in Lobo et al, 2016; conditions: ref Lobo et al, 2016, cited from earlier work
[8] = system: P. falciparum 3D7 (chloroquine and mefloquine sensitive); set-up: method as in Lobo et al, 2016; conditions: strain 3D7; ref Lobo et al, 2016; read-out: P. falciparum IC50 ± SD, 3D7; cited from earlier work

| Compound | IC50 [1] | IC50 [2] | LD50 HepG2 ([3]; human, 48 h) | LD50 V79 ([4]; Chinese hamster, 24 h) | viability at 0.7 µM [5] | viable mature-stage parasites allowed [6] | Selectivity index LD50 (HepG2)/IC50 (3D7) ([3]; HepG2 vs 3D7) | Selectivity index LD50 (HepG2)/IC50 (Dd2) ([3]; HepG2 vs Dd2) | Selectivity index LD50 (V79)/IC50 (3D7) ([4]; V79 vs 3D7) | Selectivity index LD50 (V79)/IC50 (Dd2) ([4]; V79 vs Dd2) | Resistance Index RIa = IC50 (Dd2)/IC50 (3D7) ([7]; Dd2 vs 3D7) | IC50 ([7]; strain Dd2, read-out: P. falciparum IC50 ± SD, Dd2) | IC50 [8] |
| --- | --- | --- | --- | --- | --- | --- | --- | --- | --- | --- | --- | --- | --- |
| C[C@H]1[C@@H](O)O[C@@H]2O[C@@]3(C)CC[C@H]4[C@H](C)CC[C@@H]1[C@@]24OO3 [DHA, dihydroartemisinin, reference compound] | 6.2 ± 1.6 nM | 3.7 ± 2 nM | 1.0 mM | > 1 mM | ≤ 25% | ~1% |  |  |  |  |  |  |  |
| O=C1CCC2(CC1)OOC1(O2)C2CC3CC(C2)CC1C3 (stereo not shown) [LC50] |  |  |  |  |  |  | 71428.6 | 42372.8 | 71428.6 | 42372.8 | 1.7 | 23.6 ± 8.4 nM | 14 ± 6.7 nM |
